Columns and labels:
[1] = biological target: HpG6PD enzyme (Helicobacter pylori, UniProt P56110); assay: Inactivation assays of the HpG6PD enzyme with increasing concentrations of compounds; format: biochemical; conditions: for inhibition at 800 µM: 2 h, read-out: loss of HpG6PD activity; for IC50: from plots of residual activity after incubation for 2 h at 37 °C, 200 μg/mL HpG6PD; for reduction of HpG6PD activity: at the highest concentration tested
Procedure: Subsequently, we performed inactivation assays using different concentrations of compounds to analyze their concentration–activity effect. […] As each of the compound’s concentrations was increased, the residual HpG6PD activity decreased in different degrees. For example, the exposure of the HpG6PD enzyme to YGC-3 and YGC-4 induced the abolition of the enzyme activity in a very similar manner (Figure 3A), the HpG6PD enzyme lost 80% of its activity at 800 µM, but when the enzyme was incubated with YGC-1, we observed a 91% loss in activity at 800 μM. On the other hand, MGD-1 and MGD-2 inactivated the HpG6PD enzyme, with 80% and 72% reductions, respectively, at the highest concentration tested (Figure 3B). […] In contrast, JMM-3 inhibited the HpG6PD enzyme at 80% with 800 µM (Figure 3D).
Figure 3 Inactivation assays of the HpG6PD enzyme with chemical compounds. The HpG6PD protein was adjusted at a final concentration of 200 μg/mL and incubated with increasing concentrations of the (A) YGC family; (B) MGD family; (C) TDA-1 compound; and (D) JMM-3 compound. The residual activity was determined after 2 h of incubation at 37 °C. […] The values represent the mean ± standard deviation from three independent experiments, and standard errors were lower than 5%.
(§1) Enzymatic activity was spectrophotometrically determined following the reduction of NADP^+ at 340 nm. The standard reaction mix contains 50 mM Tris-HCl, pH 7.6, 3 mM MgCl2, 200 µM glucose 6 phosphate and 100 µM NADP^+. The reaction was started with the addition of 1 µg of the purified HpG6PD. One unit of activity was defined as the amount of HpG6PD that catalyzes the oxidation of 1 µmol of glucose 6 phosphate per minute.

[2] = test system: recombinant HpG6PD (H. pylori glucose-6-phosphate dehydrogenase); assay: High-throughput screening of HpG6PD residual activity at 400 μM; format: biochemical, Helicobacter pylori; conditions: 400 μM compound, 5% DMSO, 0.2 mg/mL HpG6PD, 37 °C for two hours
Procedure: as §1
A chemical library of 55 compounds was evaluated through high-throughput screening (HTS) assays to determine those compounds with the ability to reduce the catalytic activity of the recombinant HpG6PD. Dr. Gabriel Navarrete-Vázquez from the Pharmacy Faculty of the Autonomous University of the State of Morelos provided the chemical compounds [32]. These compounds were selected based on the previously reported chemical inhibitors of human G6PD [21], prepared at a final concentration of 400 μM in 5% dimethyl sulfoxide (DMSO) (Sigma Aldrich, St. Louis, MO, USA), incubated with 0.2 mg/mL of HpG6PD (200 ng total) at 37 °C for two hours, and the HpG6PD residual activity was measured. In addition, the HpG6PD protein was incubated with 5% DMSO and used as a control.

[3] = biological target: recombinant human HsG6PD (Homo sapiens, UniProt P11413); assay: Inhibition of recombinant human HsG6PD at 400 μM; format: biochemical; conditions: 400 μM compound
Chain of recombinant human HsG6PD (P11413 whole entry): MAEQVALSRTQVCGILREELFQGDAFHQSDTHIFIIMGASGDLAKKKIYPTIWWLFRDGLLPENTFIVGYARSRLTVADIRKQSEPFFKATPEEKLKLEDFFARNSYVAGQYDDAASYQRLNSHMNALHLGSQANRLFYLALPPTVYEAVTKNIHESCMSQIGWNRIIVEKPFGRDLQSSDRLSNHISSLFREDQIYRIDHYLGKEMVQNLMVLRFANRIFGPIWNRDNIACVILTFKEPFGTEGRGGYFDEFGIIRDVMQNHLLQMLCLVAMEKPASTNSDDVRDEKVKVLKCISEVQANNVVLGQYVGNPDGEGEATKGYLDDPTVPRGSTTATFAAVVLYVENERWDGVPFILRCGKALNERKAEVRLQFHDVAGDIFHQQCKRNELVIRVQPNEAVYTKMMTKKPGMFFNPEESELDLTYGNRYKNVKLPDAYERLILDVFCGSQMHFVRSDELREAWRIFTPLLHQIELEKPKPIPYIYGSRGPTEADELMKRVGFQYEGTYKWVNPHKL

Chain of HpG6PD enzyme (P56110 whole entry): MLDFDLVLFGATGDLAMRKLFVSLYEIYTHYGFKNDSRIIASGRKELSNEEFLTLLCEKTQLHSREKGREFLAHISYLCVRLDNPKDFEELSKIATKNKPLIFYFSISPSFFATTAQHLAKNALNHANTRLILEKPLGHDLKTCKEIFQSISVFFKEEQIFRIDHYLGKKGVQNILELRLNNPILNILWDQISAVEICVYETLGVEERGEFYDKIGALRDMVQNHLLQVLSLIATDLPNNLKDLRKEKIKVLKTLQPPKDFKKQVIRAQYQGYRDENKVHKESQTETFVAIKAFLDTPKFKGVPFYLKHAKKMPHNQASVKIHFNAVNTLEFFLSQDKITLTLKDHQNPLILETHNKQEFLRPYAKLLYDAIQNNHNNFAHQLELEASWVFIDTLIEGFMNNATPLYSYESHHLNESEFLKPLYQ

| SMILES | inhibition at 800 µM [1] | IC50 [1] | HpG6PD Inhibition (%) at (400 μM) [2] | inhibition at 400 µM [3] | reduction of HpG6PD activity ([1]; incubation for 2 h at 37 °C) | loss of HpG6PD activity ([1]; by 500 µM, incubation for 2 h at 37 °C) | HpG6PD Inhibition (%) at (400 μM) ([2]; 400 µM) |
| --- | --- | --- | --- | --- | --- | --- | --- |
| COc1cc(CCC(=O)O)ccc1OCc1ccc(-c2ccccc2C#N)cc1 [JMM-3] | 80% | 304 µM | 67% | 3% | – | – | – |
| O=C(O)CCc1ccc(NC(=O)CSc2nc3ccccc3[nH]2)cc1 [MGD-1] | – | 465 µM | 50% | 4% | 80% | – | – |
| O=C(O)CCc1ccc(NC(=O)CSc2nc3ccccc3o2)cc1 [MGD-2] | – | 340 µM | 55% | 2% | 72% | – | – |
| COc1cc(/C=C2\SC(=O)NC2=O)ccc1OCCN1CCCCC1 [TDA-1] | – | 204 µM | – | 10% | – | total loss of activity | 91% |
| COc1ccc(/C=C2\SC(=O)NC2=O)cc1OCc1cccc2ccccc12 [YGC-1] | 91% | 310 µM | 84% | 8% | – | – | – |
| COc1ccc(/C=C2\SC(=O)NC2=O)cc1OCc1cccc(-c2ccccc2)c1 [YGC-3] | 80% | 383 µM | 50% | 0% | – | – | – |
| COc1ccc(/C=C2\SC(=O)NC2=O)cc1Oc1nc2ccccc2[nH]1 [YGC-4] | 80% | 500 µM | 44% | 18% | – | – | – |

Source: publication PMC8401736, “Identification and In Silico Characterization of Novel Helicobacter pylori Glucose-6-Phosphate Dehydrogenase Inhibitors” (Molecules, 2021)
